Test results from patent US20090253662A1, “GENETIC RISK ASSESSMENT IN HEART FAILURE: IMPACT OF GENETIC VARIATION OF ALDOSTERONE SYNTHASE PROMOTER POLYMORPHISM” (NitroMed, Inc., priority 2005, published 2009).
Structures can show the parent of a compound that is named as a salt.

Assays:
[1] = system: African American subjects with heart failure; assay: Left ventricular remodeling by transthoracic echocardiography at baseline and six months; format: in vivo, human
Procedure: Subjects were followed to an endpoint of death or heart failure hospitalization. Quality of Life Assessment was performed by the Minnesota Living with Heart Failure Questionnaire at baseline and at the six month visit. Left ventricular function was assessed transthoracic echocardiography at baseline and six months. The primary endpoint for A-HeFT was a composite weighted score with three components: mortality, heart failure hospitalization and change in quality of life. Left ventricular remodeling was investigated in a subset of A-HeFT subjects by transthoracic echocardiography at baseline and at six months. Event free survival was compared by genotype class by Kaplan-Meier log rank analysis, using a linear model that predicts an intermediate phenotype for heterozygotes. Continuous variables such as composite scores were compared by genotype class by linear ANOVA. For the interaction of aldosterone genotype and the impact of therapy, outcomes analyzed by genotype were compared first overall and then separately by treatment subset, fixed combination of isosorbide dinitrate and hydralazine versus placebo.

[2] = system: subjects with severe heart failure; settings: addition of spironolactone; cited from earlier work
[3] = cited from earlier work
[4] = system: post myocardial infarction; settings: addition post myocardial infarction; cited from earlier work
[5] = system: black cohorts with hypertension; settings: cited from earlier work

For CC(=O)S[C@@H]1CC2=CC(=O)CC[C@]2(C)[C@H]2CC[C@@]3(C)[C@@H](CC[C@@]34CCC(=O)O4)[C@H]12 [spironolactone], the “Left Ventricular Diastolic Diameter (LVDD) at 6 Months” value (“Left Ventricular Diastolic Diameter” for short) ([1]; -344 CC genotype) was 6.5 ± 0.8 cm, the “Left Ventricular Ejection Fraction (LVEF) at 6 Months” value ([1]; -344 CC genotype) was 32 ± 6% and the “Left Ventricular Diastolic Diameter” value ([1]; -344 TC genotype) was 6.3 ± 1.5 cm. For the same compound, the “Left Ventricular Diastolic Diameter” value ([1]; -344 TT genotype) was 6.2 ± 1.4 cm and the survival [2] was “improved survival”.

In the case of NNc1nncc2ccccc12 [Hydralazine hydrochloride, hydralazine hydrochloride], the solubility in alcohol ([3]; alcohol) is listed as “slightly soluble”, the solubility in ether ([3]; ether) is listed as “very slightly soluble” and the solubility in water [3] is listed as “soluble”.

In the case of COC(=O)[C@@H]1CC2=CC(=O)CC[C@]2(C)[C@@]23O[C@@H]2C[C@@]2(C)[C@@H](CC[C@@]24CCC(=O)O4)[C@H]13 [eplerenone], the survival [4] is listed as “improves survival” and the “effectiveness versus angiotensin II antagonists” value [5] is listed as “more effective than angiotensin II antagonists”.

For O=[N+]([O-])O[C@H]1CO[C@H]2[C@@H]1OC[C@H]2O[N+](=O)[O-] [isosorbide dinitrate, 1,4,3,6-dianhydro-D-glucitol-2,5-dinitrate], the “solubility in organic solvents” value ([3]; organic solvents such as ethanol, ether and chloroform) is given as “freely soluble” and the solubility in water [3] is given as “sparingly soluble”.
